Experimental data from PMC12113342, “Identification of TRPV1-Inhibitory Peptides from Takifugu fasciatus Skin Hydrolysate and Their Skin-Soothing Mechanisms” (Marine Drugs, 2025).
“And” between values parts separate entries of the source, which are not always exact repeats. Equal values may be shown once.

Columns and labels:
RAW 264.7 cells = test: MTS cytotoxicity assay in RAW 264.7 cells; format: cell-based; conditions: 800 μM peptide
Excerpt: (§1) The 20 peptides with the top scores were selected and entrusted to Nanjing GenScript Biotechnology Co., Ltd., with synthetic sample purity > 95%. The process was as follows: Select the appropriate resin, pretreat it with solvent, remove the resin protective group, and expose the active site. The first protective amino acid is activated and coupled to the resin, and the amino protecting group of the amino acid is removed after washing. Repeat the “Activation–Conjugation–Deprotection” step and gradually add amino acids to lengthen the peptide chain. The peptide is cleaved from the resin with reagents such as TFA while the side-chain guard group is removed. Peptides are precipitated, washed, purified by HPLC, and identified by mass spectrometry. RAW 264.7 cells were purchased from Peking Union Medical College. The cytotoxicity of 20 candidate peptides towards RAW 264.7 cells is evaluated in an MTS assay (Promega, Madison, WI, USA), adapted from reference with modifications. RAW 264.7 cells are maintained in Dulbecco’s Modified Eagle Medium (DMEM, C11995500BT, Gibco, Grand Island, NY, USA) supplemented with 10% fetal bovine serum (F8687, Merck, Darmstadt, Germany) and 1% penicillin-streptomycin (C0222, Beyotime, Shanghai, China) at 37 °C under 5% CO2. […] NO production is measured using a NO detection kit (G2930, Promega) following the manufacturer’s protocol.

[1] = system: LPS-induced RAW 264.7 cells; test: Mouse cytokine array of LPS-induced RAW 264.7 cell supernatants; format: cell-based; conditions: T14 200 μM 6 h pretreatment, LPS 24 h; vs LPS group
Method: The expression levels of 40 cytokines and chemokines in RAW 264.7 cell culture supernatants were analyzed using the Proteome Profiler™ Mouse Cytokine Array Panel A (ARY006, R&D Systems, Minneapolis, MN, USA) following the manufacturer’s protocol. Supernatants from treated groups were collected, and 300 μL per sample was used for each array. All reagents were equilibrated to room temperature (26 ± 0.5 °C) prior to use. The array membrane was blocked with blocking buffer for 2 h at room temperature. During blocking, the detection antibody cocktail was mixed with the cell supernatant and incubated at room temperature for 1 h. The mixture was then transferred to the blocked membrane and incubated overnight at 4 °C. Post-incubation, the membrane was washed three times with wash buffer (≥10 min per wash). Horseradish peroxidase-conjugated streptavidin was added, and the membrane was incubated for 2 h at room temperature. After thorough washing, a chemiluminescent substrate was applied, and signals were captured using a chemiluminescence imaging system. The array images were analyzed using ImageJ software to quantify the integrated optical density.

[2] = system: NF-κB p65 in CAP-induced HaCaT cells; test: Western blot of NF-κB p65 in CAP-induced HaCaT cells; format: cell-based; conditions: varying concentrations of T14 6 h pretreatment, CAP 24 h, total cellular protein
Method: Adapted from a previous study with modifications, HaCaT cells were seeded into 6-well plates at a density of 2.0 × 10^5 CFU/mL and cultured for 8–12 h. Cells were pretreated with varying concentrations of T14 for 6 h, followed by co-stimulation with CAP for 24 h. After washing with Dulbecco’s phosphate-buffered saline, the cells were lysed on ice for 1 h using RIPA Lysis Buffer (R0010, Solarbio). Lysates were centrifuged at 12,000× g for 30 min at 4 °C, and the supernatants were collected. Protein concentrations were quantified using a BCA assay and normalized. Loading buffer (P1016, Solarbio) was added at a 1:3 ratio, and the samples were denatured at 95 °C for 5 min using a heat block before being stored at −20 °C.
Proteins (10 μL/lane) were resolved via sodium dodecyl sulfate-polyacrylamide gel electrophoresis and transferred onto polyvinylidene fluoride membranes. Membranes were blocked with 5% skim milk in Tris-buffered saline containing 0.1% Tween-20 for 2 h at room temperature. Primary antibodies against NF-κB p65 (8242T, Cell Signaling Technology, Danvers, MA, USA) and GAPDH (CL594-6004, Abclonal, Wuhan, China) were diluted according to the manufacturer’s guidelines and incubated overnight at 4 °C. […] Band intensities were quantified using ImageJ software.

[3] = system: ET-1 in LPS-induced HUVECs; test: ET-1 ELISA in LPS-induced HUVECs; format: cell-based, human; conditions: LPS 10 μg/mL 24 h; for ET-1 inhibition rate: (LPS − peptide)/(LPS − control)
Method: (§2) HUVEC cell were purchased from Peking Union Medical College. HUVECS were cultured according to protocols provided by the Peking Union Medical College Cell Bank. Cells were maintained in DMEM supplemented with 10% fetal bovine serum, 1% penicillin-streptomycin, 1% GlutaMAX™ (25030149, Gibco), 1% non-essential amino acids (N1250, Solarbio), and 2% sodium pyruvate (11360070, Gibco) at 37 °C under 5% CO2. Cells in the logarithmic growth phase were seeded into 24-well plates at 2 × 10^5 CFU/mL and incubated overnight. After supernatant removal, the cells were pretreated with varying concentrations of T14 peptide (50, 100, 200, 400 μM) for 6 h, followed by co-stimulation with LPS (10 μg/mL) for 24 h. Cell culture supernatants were collected, and the expression levels of ET-1 and ICAM-1 were quantified using ELISA kits (E-EL-H0064 for ET-1, E-EL-H6114 for ICAM-1; Procell, Wuhan, China) according to the manufacturer’s instructions. The inhibition rate was calculated using the following formula:Inhibition rate (%) = (LPS − peptide)/(LPS − control) × 100%

[4] = system: ICAM-1 in LPS-induced HUVECs; test: ICAM-1 ELISA in LPS-induced HUVECs; format: cell-based, human; conditions: LPS 10 μg/mL 24 h; for ICAM-1 inhibition rate: (LPS − peptide)/(LPS − control); for ICAM-1 level: control 0.43, LPS 0.57 pg/mL
Method: as §2

[5] = system: LPS-induced RAW 264.7 cells; test: NO production in LPS-induced RAW 264.7 cells; format: cell-based; conditions: 200 μM peptide, 2 h pretreatment, then LPS (1 μg/mL) 24 h; vs LPS-treated group
Excerpt: as §1

[6] = system: TRPV1-mediated Ca2+ influx in CAP-induced HaCaT cells; test: Capsaicin-induced Ca2+ influx in HaCaT cells (Fluo-4AM fluorescence); format: cell-based; conditions: 200 μM peptide, 24 h pretreatment, CAP-stimulated HaCaT cells
Method: HaCaT cells were purchased from the Kunming Cell Bank, Chinese Academy of Sciences. Adapted from a previous study with modifications, HaCaT cells were cultured in DMEM supplemented with 10% fetal bovine serum and 1% penicillin-streptomycin at 37 °C under 5% CO2. Cells in the logarithmic growth phase were harvested and adjusted to a density of 1 × 10^5 CFU/mL. Cell suspensions (100 μL/well) were seeded into 96-well plates and incubated for 8–12 h. After removing the supernatant, the cells were treated with T10, T14, or T18 peptide solutions (200 μM) for 2, 6, 12, or 24 h, followed by stimulation with 100 μL CAP (IC0060, Solarbio) per well. Untreated cells served as blank controls. Intracellular Ca^2+ levels were quantified using a calcium ion assay kit (S1061S; Beyotime) according to the manufacturer’s protocol. Fluorescence images were captured using an inverted fluorescence microscope and analyzed using ImageJ software (NIH, Bethesda, MD, USA) to calculate the average fluorescence intensity.

For “IFDL [T5, hit peptide from T. fasciatus skin hydrolysate, made by solid-phase synthesis]”, the cell viability (RAW 264.7 cells) was “proliferative effects”.

“LDIF [T14, hit peptide from T. fasciatus skin hydrolysate, made by solid-phase synthesis]” was tested, and the TIMP-1 expression [1] was “markedly upregulated”, the “expression of G-CSF, GM-CSF, ICAM-1, IL-3, IL-6, IL-23 and TNF-α” value [1] was “significantly downregulated” and the “expression of M-CSF, IL-1α, IL-7, IL-13, IL-12P70, IL-16, IL-17, IL-27, CCL3, CCL4, CXCL2 and CCL5” value [1] was “moderate downward trend”. For the same substance, the p65 expression [2] was “markedly reduced p65 expression”, the ET-1 inhibition rate ([3]; 100 μM T14, 6 h pretreatment) was 24.47% and the ET-1 inhibition rate ([3]; 400 μM T14, 6 h pretreatment) was 75.0%. For the same substance, the ET-1 level ([3]; 400 μM T14, 6 h pretreatment, control 2.05, LPS 2.7 pg/mL) was 2.2 pg/mL, the ICAM-1 inhibition rate ([4]; 50 μM T14, 6 h pretreatment) was 20.65% and the ICAM-1 level ([4]; 50 μM T14, 6 h pretreatment) was 0.54 pg/mL. The ICAM-1 inhibition rate ([4]; 400 μM T14, 6 h pretreatment) was 49.0% and 48.96%, the ICAM-1 level ([4]; 400 μM T14, 6 h pretreatment) was 0.50 pg/mL and the “Inhibitory effect on NO production” value [5] was “significant inhibition”. For the same substance, the “inhibition rate of Ca2+ fluorescence intensity” value [6] was 73.1%.

With “LFIL [T9, hit peptide from T. fasciatus skin hydrolysate, made by solid-phase synthesis]” the cell viability (RAW 264.7 cells) was “proliferative effects”.
